Experimental data as given in ChEMBL document CHEMBL1201862, “PubChem BioAssay data set” (2004).
Several values for one entry are separate records, joined by “and”; a condition that tells them apart may be missing. Equal values may be shown once.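 Cells were grown in 96-well plates and exposed to each compound for 48 hours at five concentrations; endpoints were interpolated linearly between bracketing concentrations, or set to the highest concentration if not reached. Here, GI50 denotes the concentration required for 50% inhibition of growth.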 Activity calls are given as the source filed them. Rule as the data show it: active = GI50 up to about 1.1 µM and inactive = higher.

Legend:
Test in all cases: DTP human tumour cell line panel, 48 h
[1] = system: MCF7
[2] = system: NCI-H522
[3] = system: HL-60
[4] = system: SR
[5] = system: OVCAR-3
[6] = system: DU-145
[7] = system: T47D
[8] = system: SW-620
[9] = system: BT-549
[10] = system: UACC-62
[11] = system: KM12
[12] = system: SK-OV-3
[13] = system: HT-29
[14] = system: 786-0
[15] = system: RPMI-8226
[16] = system: ACHN
[17] = system: UO-31
[18] = system: OVCAR-4
[19] = system: CCRF-CEM
[20] = system: Malme-3M

Measured: GI50

Cc1nc(N)sc1C(=O)Nc1nc[nH]n1
inactive: [1] > 100 µM | [2] > 100 µM | [3] 13.3 µM | [4] 14.1 µM | [5] > 100 µM | [6] > 100 µM | [7] > 100 µM | [8] > 100 µM | [9] > 100 µM | [10] > 100 µM | [11] > 100 µM | [12] > 100 µM | [13] > 100 µM | [14] > 100 µM | [15] > 100 µM | [16] > 100 µM | [17] > 100 µM | [18] > 100 µM

O=C(CN1CCOCC1)NC1=Nc2ncccc2C(=O)NN1
inactive: [1] > 10 µM | [3] > 10 µM | [4] > 10 µM | [5] > 10 µM | [19] > 10 µM | [6] > 10 µM | [7] > 10 µM | [8] > 10 µM | [9] > 10 µM | [10] > 10 µM | [11] > 10 µM | [20] > 10 µM | [12] > 10 µM | [13] > 10 µM | [14] > 10 µM | [15] > 10 µM | [16] > 10 µM | [17] > 10 µM

COc1c(OC/C=C(\C)CCC=C(C)C)ccc2ccc(=O)oc12 [COLLININ]
inactive: [1] > 100 µM | [2] > 100 µM | [3] 43.4 µM | [4] 61.5 µM | [5] > 100 µM | [19] > 100 µM | [6] > 100 µM | [7] 62.5 µM | [8] > 100 µM | [9] 53.3 µM | [10] 94.2 µM | [11] 43.6 µM | [12] > 100 µM | [13] 94.4 µM | [14] > 100 µM | [15] > 100 µM | [16] > 100 µM | [17] > 100 µM | [18] 51.8 µM

CC(=O)OCC(OC(C)=O)C(OC(C)=O)C(/C=N\Nc1nc2ccccc2c(=O)[nH]1)OC(C)=O (stereo unspecified)
inactive: [1] > 100 µM | [3] 67.9 µM and 85.9 µM | [4] > 100 µM | [5] > 100 µM | [19] > 100 µM | [6] > 100 µM | [7] > 100 µM | [8] > 100 µM | [9] > 100 µM | [10] > 100 µM | [11] > 100 µM | [12] > 100 µM | [13] 26.2 µM and 41.6 µM | [14] > 100 µM | [15] 91.8 µM | [16] > 100 µM | [17] > 100 µM

CCCCCCCCCCCCC(=O)NCC(=O)NC(Cc1ccccc1)C(=O)Oc1ccc([N+](=O)[O-])cc1 (stereo unspecified)
inactive: [1] 57.5 µM | [2] 29.4 µM | [3] 64.4 µM | [4] 33.7 µM | [5] > 100 µM | [19] 29.4 µM | [6] > 100 µM | [7] 92.9 µM | [8] 39.9 µM | [9] 44.9 µM | [10] 60.3 µM | [11] 55.6 µM | [13] 82.2 µM | [14] 84.3 µM | [16] > 100 µM | [17] 92.9 µM

Fc1ccccc1C1SCC2=Nc3ccccc3CN21 (stereo unspecified)
inactive: [1] 80.2 µM | [3] > 100 µM | [4] 79.8 µM | [5] 97.1 µM | [19] > 100 µM | [6] > 100 µM | [7] > 100 µM | [8] > 100 µM | [9] > 100 µM | [10] 99.8 µM | [11] > 100 µM | [12] > 100 µM | [13] > 100 µM | [14] 95.3 µM | [15] > 100 µM | [16] > 100 µM | [17] > 100 µM | [18] > 100 µM
